According to patent US4015017A, “Certain biphenyl derivatives used to treat disorders caused by increased capillary permeability” (Laboratoires Pharmascience, priority 1974, dated 1977):
Read-outs that look alike come from different tables or passages of the source.

Tests used:
[1] = in vivo; settings: rat, acute toxicity, oral administration, rats, read-out: DL 50 A.O
[2] = tested on: guinea pig; assay: Capillary resistance on the guinea pig (technique of Parrot and Canu); assay type: in vivo
From the text: Experiments on capillary resistance on the guinea pig using the technique of J-L. Parrot and P. Canu, 1964, Arch. […] (By comparison trioxyethylrutine gives an increase of 13%).

[3] = in vivo; settings: rat, ip, acute toxicity, intraperitoneal administration, rats, read-out: DL50 A. IP
[4] = biological target: T1, catechol-O-methyltransferase (Rattus norvegicus, UniProt P22734); assay: Protection of the catecholamines: incubation of catechol-O-methyltransferase with adrenalin and orthodiphenol (method of Axelrod); assay type: biochemical; settings: stoichiometric amounts of adrenalin and orthodiphenol, after 30 minutes
T1 sequence (P22734 1-221 isoform P22734-2): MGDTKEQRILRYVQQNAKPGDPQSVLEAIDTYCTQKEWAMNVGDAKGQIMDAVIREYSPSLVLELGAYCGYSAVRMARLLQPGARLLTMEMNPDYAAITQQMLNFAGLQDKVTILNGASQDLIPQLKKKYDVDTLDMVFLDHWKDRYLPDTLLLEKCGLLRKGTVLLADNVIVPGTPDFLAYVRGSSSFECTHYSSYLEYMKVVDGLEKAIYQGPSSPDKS
From the text: Whether administered orally or parenterally they undergo in the organism a monomethylation on one of the two hydroxyl groups, as do all orthodiphenols, (J. Axelrod and M. J. Laroche, 1959, Science, 130, p 800). This monomethylation is due to the action of the catechol-O-methyltransferases (C.O.M.T.), S-adenosyl-L-methionine providing the methyl radicals (J. Axelrod and R. Tomchick, 1958, J. Biol. Chem. 233 p.702). This methylation occurs in the physiological catecholamines, for example, adrenalin, as well as in the synthetic orthodiphenols.
As methylation is a first stage in the destructive pathway, this competition serves to protect the natural catecholamines from early destruction, (J. M. Gazave, P. Canu, M. Baques, and F. Martin, 1971, Biochem and Experim. Biol., X p.89).
Using the techniques of Axelrod et al (op.cit.) it is possible to quantify this effect for various compounds, as the intensity of the effect varies, being dependent on the chemical composition and physical properties, especially the solubility of the compound.
By incubating a catechol-O-methyltransferase with stoichiometric amounts of adrenalin and an orthodiphenol according to the method of Axelrod, determining the quantity of adrenalin protected ie. non-methylated after 30 minutes the extent of the protection given by the product studied can be evaluated.

[5] = tested on: mice; assay: Anti-inflammation effect on vessels using croton oil on mice (technique of Bounameaux and Lecomto); assay type: in vivo
From the text: Some of the compounds of the formula I have other interesting properties. Thus the anti-inflammation effect on vessels evaluated according to the technique of Y. Bounameaux and J. Lecomto, 1955, C.R. Soc.

[6] = tested on: rats; assay: Research into the methemoglobinising properties (spectrophotometric technique of Evelyn and Malby); assay type: in vivo; settings: rats treated for 75 days at 0.20 g per kg body weight per day
From the text: Certain phenols, in particular pyrocatechol (1,2-dihydroxybenzene) and pyrogallol (1,2,3-trihydroxybenzene), when administered either orally or parenterally to an organism bring about a transformation of the oxyhaemoglobin of the blood to methemoglobin. In oxyhaemoglobin, the iron is in the ferrous state (Fe^+^+) and can transport oxygen; whereas in methemoglobin, the iron is in the ferric state (Fe ^+^+^+) and is unsuitable for transporting oxygen.
It therefore appeared necessary to try to discover if the polyhydroxy compounds used in the preparations of the present invention, in particular 2,3,3',4,4',5'-hexahydroxy benzophenone, would also act as methemoglobinising agents.
This study was carried out using pyrogallol as the comparative substance and the spectrophotometric technique of Evelyn and Malby, (in R. Lecoq, 1972, Analyses Medicales, 2, p.1699): […]

Row | protection of adrenalin (non-methylated) [4] [%] | Compound | increase in the capillary resistance [2] [%] | other results
1 | 100 | O=C(c1ccc(O)c(O)c1)c1cc(O)c(O)c(O)c1 [3,3',4,4' ,5'-pentahydroxybenzophenone, 3,3',4,4',5'-pentahydroxybenzophenone] |  | anti-inflammation effect on vessels [5]: anti-inflammatory properties
2 | ≥ 90 | O=C(c1ccc(O)c(O)c1)c1cccc(O)c1O [2,3,3',4'-Tetrahydroxybenzophenone, 2,3,3',4'-tetrahydroxybenzophenone] | 56 | anti-inflammation effect on vessels [5]: anti-inflammatory properties
3 | 100 | O=C(c1ccc(O)c(O)c1)c1ccc(O)c(O)c1O [2,3,3',4,4'-pentahydroxybenzophenone] |  | 
4 | ≥ 90 | O=C(Cc1ccc(O)c(O)c1)c1ccc(O)c(O)c1 [β-(3,4-dihydroxyphenyl)-3,4-dihydroxyacetophenone] |  | 
5 | ≥ 90 | Oc1ccc(Cc2ccc(O)c(O)c2)cc1O [di-(3,4-dihydroxyphenyl) methane, di-(3,4-dihydroxyphenyl)-methane] |  | 

Further lines, the compound ahead of its results:

Row | Compound | protection of adrenalin (non-methylated) [4] [%] | increase in the capillary resistance [2] [%] | other results
6 | O=C(Cc1ccc(O)c(O)c1)c1ccc(O)c(O)c1O [β-(3,4-dihydroxyphenyl)-2,3,4-trihydroxyacetophenone] |  | 34 | LD50 [1]: 2000 mg/kg; LD50 [3]: 730 mg/kg
7 | O=C(C(=O)c1ccc(O)c(O)c1)c1ccc(O)c(O)c1 [3,3',4,4'-tetrahydroxybenzile, 3,3',4,4'-tetrahydroxybenzil] | 100 |  | 
8 | O=C(c1cc(O)c(O)c(O)c1)c1ccc(O)c(O)c1O [2,3,3',4,4',5'-Hexahydroxybenzophenone, 2,3,3',4,4',5'-hexahydroxybenzophenone] | 100 | 82 | methemoglobin in the blood [6]: no methemoglobin could be detected; LD50 [1]: 1420 mg/kg; LD50 [3]: 355 mg/kg
9 | O=C(c1ccc(O)c(O)c1)c1ccc(O)c(O)c1 [3,3',4,4'-tetrahydroxybenzophenone] | 100 |  | 
10 | C[C@@H]1O[C@@H](OC[C@H]2O[C@@H](Oc3c(-c4ccc(OCCO)c(OCCO)c4)oc4cc(OCCO)cc(O)c4c3=O)[C@H](O)[C@@H](O)[C@@H]2O)[C@H](O)[C@H](O)[C@H]1O [trioxyethylrutine, reference compound] |  | 13 | 
